Assay results: BindingDB's records for doi:10.1016/j.ejmech.2016.01.043 (Yonsei University, 2016)

Biological target: 5-hydroxytryptamine receptor 7 (Homo sapiens, UniProt P34969)
Experiment: Displacement of [3H]LSD from 5-HT7 receptor (unknown origin) expressed in CHO-K1 cells by liquid scintillation counting method

5-hydroxytryptamine receptor 7, sequence (P34969 whole entry): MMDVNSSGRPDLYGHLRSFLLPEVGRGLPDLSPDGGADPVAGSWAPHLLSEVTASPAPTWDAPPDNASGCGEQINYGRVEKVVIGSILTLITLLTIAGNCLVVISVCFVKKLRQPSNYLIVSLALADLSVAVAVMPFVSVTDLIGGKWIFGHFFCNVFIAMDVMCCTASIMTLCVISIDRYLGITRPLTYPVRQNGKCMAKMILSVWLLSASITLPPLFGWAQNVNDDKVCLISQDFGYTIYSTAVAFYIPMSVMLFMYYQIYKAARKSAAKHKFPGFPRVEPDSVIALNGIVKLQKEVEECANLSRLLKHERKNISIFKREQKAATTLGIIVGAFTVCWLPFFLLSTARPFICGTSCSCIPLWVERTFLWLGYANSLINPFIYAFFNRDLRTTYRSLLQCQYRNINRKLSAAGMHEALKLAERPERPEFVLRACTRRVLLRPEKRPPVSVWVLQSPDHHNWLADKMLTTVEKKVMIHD

Q: With `CC1CCCN(CCCCC(=O)n2c3ccccc3c3ccccc32)C1` (stereo unspecified) as the compound, how does the Ki read?
A: The Ki was 794 nM.
